Data taken from patent US20260355137A1, “NOVEL OPHTHALMIC FORMULATION” (FERTIS INDIA PVT LTD, priority 2022, published 2026).
Entries after “also recorded” stand apart in the source; their conditions may differ.

Columns and labels:
Type in all cases: in vivo, New Zealand rabbit
[1] = system: cataract induced left eye; test: Macroscopic examination, cataract induced left eye (cinnamic acid derivatives, Tables 10-11); settings: for No Abnormality Detected, incidence: animals affected/6
Method: (§1) An illustrative ophthalmic formulation for treatment of eye disease is set forth below: The formulations provided herein below are tested in cataract induced New Zealand rabbits, and the results are discussed herein below.
(§2) Cataract was induced by injecting 0.5% Methyl Cellulose, which is replaced by aqueous humor in the rabbit eye (i.e., 0.2 mL of Aqueous humor was withdrawn and the same 0.2 mL of 0.5% Methyl cellulose was injected as a replacement). Cataract was observed within 3-4 days of 0.5% Methyl cellulose replacement. Cataract induction was performed to left eye and right eye was served as a control.
(§3) Rabbits were observed by ophthalmoscope and slit lamp once in three days for cataract confirmation. Intraocular pressure was measured with a tonometer once in three days for the confirmation of glaucoma.

[2] = system: cataract induced left eye: lens; test: Microscopic observations (histopathology) of lens (Table 12)
Method: as §1, §2
(§4) All surviving animals were euthanized on Day 29 by overdose of Thiopental Sodium. Before scheduled euthanasia, the animals were fasted overnight (water allowed) and terminal body weights were recorded. Animals were subjected to detailed macroscopic observation during necropsy. Both right (untreated/uninduced) and left (treated/induced) eyes were collected and cornea and lens were separated, preserved in Davidson fluid. Cornea and lens selected for histopathological evaluation were processed, embedded and sections were cut at 3-5 μm thickness, Sections were placed on grease-free slides and stained with Hematoxylin and Eosin. A 5-step grading system of minimum, mild, moderate, marked and severe will be used to rank microscopic findings for comparison among groups. Data was compiled based on incidences and severity of changes.

[3] = system: intraocular pressure, induced left eye; test: Intraocular pressure, tonometer (Table 13); parameters: unit not given beside the values; settings: left eye induced/treated
Method: as §2, §3
(§5) Intra-ocular pressures were measured in animals in each group once in three days using a Tonometer. The readings were documented for each eye separately.

[4] = system: cataract induced left eye; test: Macroscopic examination, cataract induced left eye (Tables 14-15)
Method: as §1, §2, §3

[5] = system: cataract induced left eye: lens and cornea; test: Microscopic examination (histopathology) of lens and cornea (Table 16)
Method: as §1, §2, §4

[6] = system: intraocular pressure, glaucoma-induced left eye; test: Intraocular pressure, tonometer (Table 17); settings: for Intraocular pressure, Mean, Left eye: Left (induced) eye; for Intraocular pressure, Mean, Left eye / Intraocular pressure, Mean, Right eye: male, 6 animals/group
Method: as §2, §3, §5

[7] = system: cataract and intraocular pressure/glaucoma in induced rabbit eye; test: Overall efficacy in cataract reduction and reducing intraocular pressure
Method: as §1
(§6) The following preclinical studies were conducted in rabbit model to test the efficacy of various active ingredients.
as §2, §3

[8] = system: cataract induced New Zealand rabbits (left eye); test: Macroscopic observations, cataract induced left eye (study of rosmarinic acid formulations, Tables 2-3); settings: ocular 100 μL/rabbit, 28 days, F1 0.25%, F2 0.5%, F3 1.0% rosmarinic acid each with N-acetyl carnosine, F4 0.5% without
Method: as §1, §6, §2, §3
Test Item formulations were administered through ocular route. Ocular route has been chosen as it is the intended therapeutic route of administration in humans.
All test formulations provided as above were administered topically as a therapeutic treatment. A total of 100 μL/Rabbit of placebo or Rosmarinic acid formulations (F1, F2, F3 and F4) were instilled in the 50 μL/eye (left) in two divided doses for 28 days […]

[9] = system: cataract induced left eye: lens and cornea; test: Microscopic observations (histopathology) of lens and cornea (Tables 4-8); settings: 0.5% rosmarinic acid, Table 8, G5 group
Method: as §1, §2
(§7) All test formulations provided as above were administered topically as a therapeutic treatment. A total of 100 μL/Rabbit of placebo or Rosmarinic acid formulations (F1, F2, F3 and F4) were instilled in the 50 μL/eye (left) in two divided doses for 28 days
as §4

[10] = system: intraocular pressure, glaucoma-induced left eye; test: Intraocular pressure, tonometer (Table 9); settings: 0.5%, Table 9 G5 group
Method: as §2, §3, §7

[11] = left eye (cataract induced), macroscopic
[12] = left eye (cataract induced), lens
[13] = left eye (cataract induced), lens, number of animals
[14] = second study, 0.5% rosmarinic acid (G2), 0.25% caffeic acid (G6)

O=C(O)/C=C/c1ccc(O)c(O)c1 [Caffeic acid]
Opacity, cornea and red discoloured, with diffuse opacity: Moderate, incidence [1, 11]: 1/6 | Opacity, cornea, diffuse: Mild, incidence [1, 11]: 1/6 | Opacity, cornea, diffuse: Minimal, incidence [1, 11]: 1/6 | Opacity, cornea, diffuse: Moderate, incidence [1, 11]: 1/6 | No Abnormality Detected, incidence [1, 11]: 1/6 | histopathological findings, lens (in words) ([2]; Table 12, G2 0.5% rosmarinic acid, G6 0.25% caffeic acid): a higher incidence of lenticular degeneration | Within Normal Histological Limits, incidence ([2]; left eye (cataract induced)): 0/6 | Epithelial proliferation, incidence [2, 12]: 3/6 | Epithelial proliferation: Absent, incidence [2, 12]: 3/6 | Lenticular Degeneration, incidence [2, 12]: 6/6 | Liquefaction, incidence [2, 12]: 4/6 | Liquefaction: Absent, incidence [2, 12]: 2/6 | Epithelial proliferation: Mild, incidence [2, 13]: 1 | Epithelial proliferation: Minimal, incidence [2, 13]: 1 | Epithelial proliferation: Moderate, incidence [2, 13]: 1 | Liquefaction: Mild, incidence [2, 13]: 1 | Liquefaction: Minimal, incidence [2, 13]: 2 | Liquefaction: Moderate, incidence [2, 13]: 1 | Intraocular Pressure, mean ([3]; Day 3): 90.35 | Intraocular Pressure, mean ([3]; Day 6): 63.22 | Intraocular Pressure, mean ([3]; Day 9): 62.17 | Intraocular Pressure, mean ([3]; Day 12): 65.93 | Intraocular Pressure, mean ([3]; Day 15): 45.45 | Intraocular Pressure, mean ([3]; Day 18): 45.73 | Intraocular Pressure, mean ([3]; Day 21): 41.50 | Intraocular Pressure, mean ([3]; Day 24): 38.93 | Intraocular Pressure, mean ([3]; Day 27): 32.12 | Intraocular Pressure, mean ([3]; Day 30): 30.78 | Intraocular Pressure, mean ([3]; Day 33): 26.60↓↓ | cataract efficacy, macroscopic (in words) ([4]; Table 15): all 6 animals were completely recovered, and no cataract was observed at all | No Abnormality Detected, incidence [4, 11]: 6/6 | cataract efficacy, histopathology (in words) ([5]; Table 16): fully regenerated in 5 out of 6 animals, from severe degeneration to a minimal scale; also recorded: One animal exhibited complete recovery | Lens, Liquefaction: Minimal, incidence ([5]; left eye induced): 5/6 | No abnormality (histopathology), incidence ([5]; left eye induced): 1/6 | Intraocular pressure, Mean, Left eye ([6]; Day 3): 41.50 mmHg | Intraocular pressure, Mean, Left eye ([6]; Day 6): 23.89 mmHg | Intraocular pressure, Mean, Left eye ([6]; Day 9): 21.61 mmHg | Intraocular pressure, Mean, Left eye ([6]; Day 12): 25.33 mmHg | Intraocular pressure, Mean, Left eye ([6]; Day 15): 25.11 mmHg | Intraocular pressure, Mean, Left eye ([6]; Day 18): 29.56 mmHg | Intraocular pressure, Mean, Left eye ([6]; Day 21): 29.94 mmHg | Intraocular pressure, Mean, Left eye ([6]; Day 25): 24.78 mmHg | Intraocular pressure, Mean, Left eye ([6]; Day 28, ↓↓ = Significantly low at P ≤ 0.01 compared to respective control): 21.11↓↓ mmHg | Intraocular pressure, Mean, Right eye ([6]; Day 3): 15.83 mmHg | Intraocular pressure, Mean, Right eye ([6]; Day 6): 19.11 mmHg | Intraocular pressure, Mean, Right eye ([6]; Day 9): 16.61 mmHg | Intraocular pressure, Mean, Right eye ([6]; Day 12): 16.94 mmHg | Intraocular pressure, Mean, Right eye ([6]; Day 15): 14.61 mmHg | Intraocular pressure, Mean, Right eye ([6]; Day 18): 15.44 mmHg | Intraocular pressure, Mean, Right eye ([6]; Day 21): 15.28 mmHg | Intraocular pressure, Mean, Right eye ([6]; Day 25): 17.17 mmHg | Intraocular pressure, Mean, Right eye ([6]; Day 28): 17.11 mmHg | intraocular pressure following treatment ([6]; induced left eye, 28-day treatment regimen, 0.5%): 21.11 mmHg | mean intraocular pressure initially measured ([6]; induced left eye, six animals, within three days): 41.5 mmHg | overall efficacy (in words) [7, 14]: showed promise | overall efficacy (in words) ([7]; second study, 0.5% rosmarinic acid (G2), 0.25% caffeic acid (G6), listed as caffeic acid): shown to be the best | overall efficacy / order of efficacy (in words) ([7]; third study, cataract reduction and reducing intraocular pressure, highest to lowest): showed the best results, with remarkable efficacy not only in cataract reduction but also in addressing glaucoma; also recorded: Caffeic Acid G3>Epigallocatechin Gallate G4>Encapsulated Feruloyl Tyramine G5>Ferulic Acid G6>Rosmarinic Acid+Caffeic Acid G2

O=C(/C=C/c1ccc(O)c(O)c1)O[C@H](Cc1ccc(O)c(O)c1)C(=O)O [Rosmarinic acid]
Macroscopic inference (Left Eye) [8]: no abnormalities found in all the 6 animals | corneal edema (in words) [9]: five animals' corneal edema was within histological limits and one animal with minimal corneal edema | epithelial proliferation in lens (in words) [9]: In five animals' epithelial proliferation in lens was within histological limits; also recorded: Only one animal displayed minimal epithelial proliferation | liquefaction in the lens (in words) [9]: in four animals, liquefaction in the lens is within histological limits; also recorded: in two animals, minimal liquefaction was observed | intraocular pressure following treatment ([10]; 28-day treatment regimen): 20.06 mmHg | intraocular pressure initially measured ([10]; within six days): 59.72 mmHg | macroscopic examination (in words) ([1]; Table 11, G2 0.5% rosmarinic acid, G6 0.25% caffeic acid): minimal corneal opacity in some animals, with no abnormalities in one | Opacity, cornea and red discoloured, with diffuse opacity: Minimal, incidence [1, 11]: 1/6 | Opacity, cornea, diffuse: Mild, incidence [1, 11]: 1/6 | Opacity, cornea, diffuse: Minimal, incidence [1, 11]: 3/6 | No Abnormality Detected, incidence [1, 11]: 1/6 | Within Normal Histological Limits, incidence ([2]; left eye (cataract induced)): 0/6 | Epithelial proliferation, incidence [2, 12]: 2/6 | Epithelial proliferation: Absent, incidence [2, 12]: 4/6 | Lenticular Degeneration, incidence [2, 12]: 4/6 | Liquefaction, incidence [2, 12]: 4/6 | Liquefaction: Absent, incidence [2, 12]: 2/6 | Epithelial proliferation: Marked, incidence [2, 13]: 1 | Epithelial proliferation: Minimal, incidence [2, 13]: 1 | Liquefaction: Marked, incidence [2, 13]: 1 | Liquefaction: Minimal, incidence [2, 13]: 3 | Intraocular Pressure, mean ([3]; Day 3): 83.15 | Intraocular Pressure, mean ([3]; Day 6): 77.55 | Intraocular Pressure, mean ([3]; Day 9): 78.72 | Intraocular Pressure, mean ([3]; Day 12): 66.83 | Intraocular Pressure, mean ([3]; Day 15): 48.83 | Intraocular Pressure, mean ([3]; Day 18): 48.48 | Intraocular Pressure, mean ([3]; Day 21): 46.77 | Intraocular Pressure, mean ([3]; Day 24): 44.55 | Intraocular Pressure, mean ([3]; Day 27): 42.62 | Intraocular Pressure, mean ([3]; Day 30): 23.27 | Intraocular Pressure, mean ([3]; Day 33): 18.45↓↓ | overall efficacy (in words) ([7]; 0.5% rosmarinic acid, G5 of first study): demonstrates its efficacy not only in preventing lens liquefaction, epithelial proliferation, and corneal edema and treating cataract but also in reducing intraocular pressure | overall efficacy (in words) [7, 14]: shown to be the best; also recorded: superior efficacy
